Laboratory results taken from paper PMC8952214 (Pharmaceuticals, 2022).
Where two headings read alike, the source gives them in different places.

How the values were obtained:
[1] = tested on: A/Parma/05/06 H3N2 (Wisconsin-like); format: biochemical, Influenza A virus
Cytotoxicity assay = format: cell-based, canine; settings: dog, MDCK cells (confluent); read-out: CC50 cytotoxic concentration 50%
Procedure: Madin-Darby canine kidney (MDCK, ATCC, CRL-2936) cells were grown at 37 °C in minimal essential medium (MEM, Invitrogen, Paisley, UK) containing 1.2 g/L NaHCO3, and supplemented with 10% inactivated fetal calf serum (FCS, Invitrogen, Paisley, UK), 2 mM glutamine, nonessential amino acids, penicillin (100 IU/mL), and streptomycin (100 μg/mL).
This procedure was performed as reported elsewhere. Briefly, two-fold serial dilutions of each compound and DMSO or H2O in culture medium were incubated at 37 °C with confluent MDCK cells grown in 96-well tissue culture microplates (Nalge Nunc Europe Ltd., Neerijse, Belgium). After 24 and 48 h, the following parameters were evaluated: cell morphology was examined by light microscopy, cell viability was determined by neutral red staining as already described by us, and cell proliferation was evaluated quantitatively by microscopic counts after dispersion into individual cells with trypsin.

[2] = tested on: A/RomaISS/02/08 H1N1 (Brisbane-like) oseltamivir-sensitive virus; assay: microbe, parasite or virus in culture; format: cell-based, Influenza A virus; settings: for EC50: Influenza A virus, H1N1, MDCK, 48 h, read-out: EC50 A/Roma H1N1
[3] = tested on: A/Parma/05/06 H3N2 (Wisconsin-like); assay: microbe, parasite or virus in culture; format: cell-based, Influenza A virus; settings: for EC50: Influenza A virus, H3N2, MDCK, 48 h, read-out: EC50 A/Parma H3N2
[4] = tested on: A/RomaISS/02/08 H1N1 (Brisbane-like) oseltamivir-sensitive virus; settings: Table 1; turkey erythrocytes; cited from earlier work
[5] = tested on: A/RomaISS/02/08 H1N1 (Brisbane-like) oseltamivir-sensitive virus; settings: MDCK cells, c.p.e. by neutral red, 48 h; read-out: EC50 A/Roma H1N1; cited from earlier work
A/H1N1 = settings: cited from earlier work
[6] = tested on: A/RomaISS/02/08 H1N1 (Brisbane-like) oseltamivir-sensitive virus; format: biochemical, Influenza A virus

Row | SMILES | HI Titer A/Parma H3N2 [1] | CC50 (Cytotoxicity assay) | SI (selectivity index) = CC50/EC50, A/Parma H3N2 [3] | HI Titer A/Roma H1N1 [4] | HI Titer A/Roma H1N1 [6] | further results
1 | COc1ccc(S(=O)(=O)NCc2ccc(-n3ccnc3)cc2)cc1F [Compound 25] | 50,000 pM | 31200 nM | 0.39 × 10^2 |  |  | SI (selectivity index) = CC50/EC50, A/Roma H1N1 [2]: 0.34 × 10^2; EC50 [2]: 900 nM
2 | COc1ccc(C(=O)Nc2cccc(S(=O)(=O)NCc3ccco3)c2)cc1 [Compound 3] |  |  |  | 0.48 µM |  | 
3 | Cc1ccc(S(=O)(=O)NC(C)c2ccc(-n3ccnc3)cc2)cc1C (stereo not drawn) [Compound 1] | 0.48 µM | 300000 nM | 3 × 10^3 | 0.24 µM |  | EC50 [3]: 98 nM; EC50 [5]: 500 nM; activity in hemolysis assays toward A/H1N1 (A/H1N1): active
4 | Cc1ccc(NC(=O)COC(=O)c2ccccn2)cc1F [Compound 13] | 6e-06 µM | 31200 nM | 0.62 × 10^2 |  | 24 pM | EC50 [2]: 700 nM
5 | CC(NS(=O)(=O)c1ccc2c(c1)CCC(=O)N2)c1ccc(-n2ccnc2)cc1 (stereo not drawn) [Compound 27] | 25,000 pM |  |  |  |  | 
6 | Cc1ccc(F)cc1NC(=O)COC(=O)c1ccc2ccccc2n1 [Compound 4] | 0.48 µM | 250000 nM | 2 × 10^3 | 0.48 µM |  | EC50 [3]: 125 nM; EC50 [5]: 62 nM; activity in hemolysis assays toward A/H1N1 (A/H1N1): active
7 | O=C1CCCN1c1ccc(CNS(=O)(=O)c2ccc(F)cc2)cc1 [Compound 23] |  |  |  |  | 12 pM | 
8 | O=C(COC(=O)c1ccccn1)Nc1ccc2c(c1)CCC2 [Compound 24] |  |  |  |  | 0.024 pM | 
9 | Cc1ccc2nc(CNc3ccc(C)c(Cl)c3)cc(=O)n2c1 [Compound 5] |  |  |  | 0.48 µM |  | 
10 | Fc1ccc(CNc2ncnc3[nH]cnc23)cc1 [Compound 2] |  |  |  | 0.48 µM |  | 
11 | Cc1ccc(S(=O)(=O)Nc2ccc(-n3ccnc3)c(Cl)c2)cc1 [Compound 28] |  |  |  |  | 0.093 pM | 
12 | Cc1nc(-c2cccc(NC(=O)COC(=O)c3ccc4ccccc4n3)c2)cs1 [Compound 26] |  |  |  |  | 0.093 pM | 
13 | N#Cc1ccc(NC(=O)COC(=O)c2ccccn2)cc1 [Compound 7] | 12,500 pM | 31200 nM | 0.44 × 10^2 |  | 0.047 pM | SI (selectivity index) = CC50/EC50, A/Roma H1N1 [2]: 0.39 × 10^2; EC50 [2]: 800 nM; EC50 [3]: 700 nM
14 | O=C(CC1(O)C(=O)Nc2ccccc21)c1ccccn1 (stereo not drawn) [Compound 6] | 0.00048 µM | 31200 nM | 1.04 × 10^2 |  |  | SI (selectivity index) = CC50/EC50, A/Roma H1N1 [2]: 1.56 × 10^2; EC50 [2]: 200 nM; EC50 [3]: 300 nM
